IC50 data for nine molecules are collected here from US9580430B2, “9H-pyrimido[4,5-B]indoles and related analogs as BET bromodomain inhibitors” (THE REGENTS OF THE UNIVERSITY OF MICHIGAN, priority 2014, dated 2017).

One test has as its target T1, recombinant BRD4 BD1 (Homo sapiens, UniProt O60885).
T1 construct: for recombinant BRD4 BD1 and BRD4 BD2 proteins
The experiment in a line: Competitive fluorescence-polarization (FP) binding assay, BRD4 BD1. Also: probe 1.5 nM. The conditions noted are these: competitive FP assay; protein 10 nM, probe […]; read-out: IC50 (nM) BRD4 BD1. The essentials:
(§1)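 FP competition with FAM-labelled probe (ZBA248 or BRD-1F) against preincubated protein/probe complex; BD1 at 10 nM and BD2 at 6 nM final, in 100 mM potassium phosphate pH 6.5, 0.01% Triton X-100. 30 min, room temperature. IC50 by nonlinear regression; Ki also derived, using probe Kd from protein saturation.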

For the next test, the system named is MDA-MB-436. As to the kind of experiment: Cell growth inhibition, MDA-MB-436 breast cancer cells (WST-8). The format is cell-based. The note with it: Homo sapiens, MDA-MB-436, 96 h; 4 days; read-out: IC50 (nM) MDA-MB-436 Cell Line (WST assay). The essentials: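 IC50 was computed from WST-8-based cell counting in MDA-MB-436 cells, with absorbance read at 450 nm.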
(Tetrazolium dyes change colour on reduction, which living cells bring about.)

For a further test, the target named is T2, recombinant BRD4 BD2 (Homo sapiens, UniProt O60885).
T2 construct: for recombinant BRD4 BD1 and BRD4 BD2 proteins
The experiment in a line: Competitive fluorescence-polarization (FP) binding assay, BRD4 BD2. Also: probe 1.5 nM. The note with it: competitive FP assay; protein 6 nM, probe […]; read-out: IC50 (nM) BRD4 BD2. The procedure, abridged: as §1

A further test has as its system MOLM-13. As to the kind of experiment: Cell growth inhibition, MOLM-13 leukemia cells (CellTiter-Glo). The conditions noted are these: Homo sapiens, MOLM-13, 96 h; 4 days; read-out: IC50 (nM) MOLM-13 Cell Line (CellTiter-Glo assay). The format is cell-based. The procedure, abridged:
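MOLM-13 leukemia cells treated with compounds; viability read by CellTiter-Glo luminescence after 10-20 min reagent incubation at room temperature. IC50 derived from luminescent signal.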

What is called IC50 is the concentration at which inhibition is half-maximal. For the molecule `COc1cc2c(cc1-c1c(C)noc1C)[nH]c1nc(C)nc(Nc3csc4ncccc34)c12` [Cpd. No. 103, N-(7-(3,5-dimethylisoxazol-4-yl)-6-methoxy-2-methyl-9H-pyrimido[4,5-b]indol-4-yl)thieno[2,3-b]pyridin-3-amine], the IC50 at recombinant BRD4 BD1 came to 29 nM; in the test with MDA-MB-436, 120 nM; on recombinant BRD4 BD2, 38 nM; in the test on MOLM-13, 39 nM.
The corresponding values for `COc1cc2c(cc1-c1c(C)noc1C)[nH]c1nc(C)nc(Nc3cnn4c3CCC4)c12` [Cpd. No. 134, N-(5,6-Dihydro-4H-pyrrolo[1,2-b]pyrazol-3-yl)-7-(3,5-dimethylisoxazol-4-yl)-6-methoxy-2-methyl-9H-pyrimido[4,5-b]indol-4-amine] are 40.2 nM, 128 nM, 30.5 nM and 32 nM.
The corresponding values for `COc1cc2c(cc1-c1c(C)noc1C)[nH]c1nc(C)nc(Nc3cc(C)nn3C3CCC3)c12` [Cpd. No. 119, N-(1-Cyclobutyl-3-methyl-1H-pyrazol-5-yl)-7-(3,5-dimethylisoxazol-4-yl)-6-methoxy-2-methyl-9H-pyrimido[4,5-b]indol-4-amine] are 11.4 nM, 26 nM, 10.6 nM and 38.8 nM.
The corresponding values for `COc1ccc2c(Nc3nc(C)nc4[nH]c5cc(-c6c(C)noc6C)c(OC)cc5c34)nn(C)c2c1` [Cpd. No. 19, 7-(3,5-Dimethylisoxazol-4-yl)-6-methoxy-N-(6-methoxy-1-methyl-1H-indazol-3-yl)-2-methyl-9H-pyrimido[4,5-b]indol-4-amine] are 200 nM, 323 nM, 613 nM and 109 nM.
Take `COc1cc2c(cc1-c1c(C)noc1C)[nH]c1nc(C)nc(Nc3cc(C4CC4)nn3C)c12` [Cpd. No. 121, N-(3-Cyclopropyl-1-methyl-1H-pyrazol-5-yl)-7-(3,5-dimethylisoxazol-4-yl)-6-methoxy-2-methyl-9H-pyrimido[4,5-b]indol-4-amine]: the 50% inhibitory concentration (IC50) on recombinant BRD4 BD1 amounted to 1.6 nM; in the test on MDA-MB-436, 11.2 nM; at recombinant BRD4 BD2, 3.2 nM; in the test on MOLM-13 it was 11.7 nM.
Turning to `COc1cc2c(cc1-c1c(C)noc1C)[nH]c1nc(C)nc(Nc3cc(C(F)(F)F)nn3C)c12` [Cpd. No. 21, 7-(3,5-Dimethylisoxazol-4-yl)-6-methoxy-2-methyl-N-(1-methyl-3-(trifluoromethyl)-1H-pyrazol-5-yl)-9H-pyrimido[4,5-b]indol-4-amine], the IC50 on recombinant BRD4 BD1 came to 13.3 nM; in the test on MDA-MB-436, 52.7 nM; on recombinant BRD4 BD2, 34.6 nM; with MOLM-13, 21.9 nM.
Regarding `COc1cccc(Nc2nc(C)nc3[nH]c4cc(-c5c(C)noc5C)c(OC)cc4c23)c1` [Cpd. No. 213, 7-(3,5-dimethylisoxazol-4-yl)-6-methoxy-N-(3-methoxyphenyl)-2-methyl-9H-pyrimido[4,5-b]indol-4-amine], the IC50 on recombinant BRD4 BD1 was determined as 54 nM; with MDA-MB-436 it was 211 nM; at recombinant BRD4 BD2, 28 nM; with MOLM-13, 103 nM.
The corresponding values for `COc1cc2c(cc1-c1c(C)noc1C)[nH]c1nc(C)nc(Nc3cccc4nc(C)ccc34)c12` [Cpd. No. 228, 7-(3,5-dimethylisoxazol-4-yl)-6-methoxy-2-methyl-N-(2-methylquinolin-5-yl)-9H-pyrimido[4,5-b]indol-4-amine] are 25 nM, 129 nM, 26 nM and 87 nM.
The corresponding values for `COc1cc2c(cc1-c1c(C)noc1C)[nH]c1nc(C)nc(Nc3cc(C)ccc3C)c12` [Cpd. No. 238, 7-(3,5-dimethylisoxazol-4-yl)-N-(2,5-dimethylphenyl)-6-methoxy-2-methyl-9H-pyrimido[4,5-b]indol-4-amine] are 5 nM, 61 nM, 3 nM and 39 nM.
